Experimental data as given in ChEMBL document CHEMBL1201862, “PubChem BioAssay data set” (2004).
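Five concentrations, 48 hours, 96-well plates. GI50 marks 50% less growth.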 Activity calls are given as the source filed them. No stated cut-off is given here; in the data, active = GI50 up to about 1.1 µM and inactive = higher. Where a SMILES comes first, the peptide text is derived from it. The star is where a group is joined. OSu = O=C1CCC(=O)N1O*; OBn = c1ccc(CO*)cc1; Bn = c1ccc(C*)cc1

Assays:
Assay in all cases: growth of human tumour cells (NCI), 48 h
CAKI-1 = tested on: CAKI-1
COLO 205 = tested on: COLO 205
HCT-116 = tested on: HCT-116
HL-60 = tested on: HL-60
HOP-62 = tested on: HOP-62
KM12 = tested on: KM12
LOX IMVI = tested on: LOX IMVI
MDA-MB-231 = tested on: MDA-MB-231
MDA-N = tested on: MDA-N
NCI-H23 = tested on: NCI-H23
OVCAR-4 = tested on: OVCAR-4
RPMI-8226 = tested on: RPMI-8226
RXF 393 = tested on: RXF 393
SF-295 = tested on: SF-295
SK-MEL-5 = tested on: SK-MEL-5
SNB-19 = tested on: SNB-19
T47D = tested on: T47D
UO-31 = tested on: UO-31
DU-145 = tested on: DU-145
MCF7 = tested on: MCF7

SMILES	GI50 (CAKI-1)	GI50 (COLO 205)	GI50 (HCT-116)	GI50 (HL-60)	GI50 (HOP-62)	GI50 (KM12)	GI50 (LOX IMVI)	GI50 (MDA-MB-231)	GI50 (MDA-N)	GI50 (NCI-H23)	GI50 (OVCAR-4)	GI50 (RPMI-8226)	GI50 (RXF 393)	GI50 (SF-295)	GI50 (SK-MEL-5)	GI50 (SNB-19)	GI50 (T47D)	GI50 (UO-31)	GI50 (DU-145)	GI50 (MCF7)
CCC(=O)N(c1ccccc1)C(C)CN1CCC(O)(c2cccc(C(F)(F)F)c2)CC1 (centres undefined)	> 100 µM (inactive)	14.7 µM (inactive)	17.3 µM (inactive)	17.8 µM (inactive)	21.5 µM (inactive)	35.2 µM (inactive)	18.9 µM (inactive)	21.6 µM (inactive)	19.5 µM (inactive)	21.4 µM (inactive)	33.3 µM (inactive)	18.7 µM (inactive)	> 100 µM (inactive)	35.4 µM (inactive)	20.6 µM (inactive)	> 100 µM (inactive)	33.7 µM (inactive)	28.8 µM (inactive)	–	–
CCN(CC)CCn1c(C(C)(C)C)nc2ccccc21	> 100 µM (inactive)	> 100 µM (inactive)	> 100 µM (inactive)	> 100 µM (inactive)	> 100 µM (inactive)	> 100 µM (inactive)	–	–	> 100 µM (inactive)	> 100 µM (inactive)	> 100 µM (inactive)	> 100 µM (inactive)	> 100 µM (inactive)	> 100 µM (inactive)	> 10 µM (inactive)	> 100 µM (inactive)	–	> 100 µM (inactive)	> 100 µM (inactive)	> 100 µM (inactive)
COc1ccc2c(c1)C/C(=C\c1ccc(O)c(OC)c1)C2=O	> 100 µM (inactive)	–	–	> 100 µM (inactive)	–	–	> 100 µM (inactive)	–	–	> 100 µM (inactive)	> 100 µM (inactive)	> 100 µM (inactive)	–	–	> 10 µM (inactive)	> 100 µM (inactive)	–	> 100 µM (inactive)	–	> 100 µM (inactive)
Cc1ccc(S(=O)(=O)NC(=O)Nc2ccc(C(=O)O)c(O)c2)cc1	> 100 µM (inactive)	> 100 µM (inactive)	> 100 µM (inactive)	> 100 µM (inactive)	> 100 µM (inactive)	> 100 µM (inactive)	> 100 µM (inactive)	> 100 µM (inactive)	–	> 100 µM (inactive)	> 100 µM (inactive)	> 100 µM (inactive)	> 100 µM (inactive)	> 100 µM (inactive)	> 100 µM (inactive)	> 100 µM (inactive)	–	> 100 µM (inactive)	> 100 µM (inactive)	> 100 µM (inactive)
CCN(CCCl)CCNc1c2ccccc2nc2ccc(OC)cc12	0.361 µM (active)	0.136 µM (active)	0.236 µM (active)	0.199 µM (active)	1.12 µM (active)	0.603 µM (active)	0.31 µM (active)	–	–	0.514 µM (active)	0.794 µM (active)	0.0977 µM (active)	0.54 µM (active)	0.766 µM (active)	1.12 µM (active)	1.41 µM (inactive)	–	1.44 µM (inactive)	–	0.378 µM (active)
CC(C)CC(NC(=O)C(N)CCC(=O)OCc1ccccc1)C(=O)NC(COCc1ccccc1)C(=O)NC(Cc1ccccc1)C(=O)ON1C(=O)CCC1=O (centres undefined) (H-E(OBn)LS(Bn)F-OSu; configuration not given here)	28.8 µM (inactive)	–	16.4 µM (inactive)	–	–	32.1 µM (inactive)	18.2 µM (inactive)	18.1 µM (inactive)	21.4 µM (inactive)	26.4 µM (inactive)	27.8 µM (inactive)	19.9 µM (inactive)	21.8 µM (inactive)	24.4 µM (inactive)	17.4 µM (inactive)	30.5 µM (inactive)	–	23.6 µM (inactive)	27.7 µM (inactive)	27.4 µM (inactive)
O=C(O)CCC(NC(=O)c1ccc(CNc2nc3ccccc3nc2C(=O)O)cc1)C(=O)O (centres undefined)	–	> 100 µM (inactive)	> 100 µM (inactive)	–	> 100 µM (inactive)	> 100 µM (inactive)	> 100 µM (inactive)	> 100 µM (inactive)	> 100 µM (inactive)	> 100 µM (inactive)	> 100 µM (inactive)	> 100 µM (inactive)	–	> 100 µM (inactive)	> 100 µM (inactive)	> 100 µM (inactive)	–	> 100 µM (inactive)	> 100 µM (inactive)	> 100 µM (inactive)
CC(C)CC(NC(=O)C(COc1ccc([N+](=O)[O-])cc1)Cc1ccccc1)C(=O)Nc1ccccc1 (centres undefined)	28.2 µM (inactive)	9.04 µM (inactive)	22.2 µM (inactive)	10.3 µM (inactive)	–	5.85 µM (inactive)	48.6 µM (inactive)	21.1 µM (inactive)	10.3 µM (inactive)	13 µM (inactive)	2.35 µM (inactive)	40.5 µM (inactive)	16.3 µM (inactive)	11.2 µM (inactive)	7.83 µM (inactive)	7.76 µM (inactive)	–	7 µM (inactive)	> 100 µM (inactive)	25.8 µM (inactive)
N#CC(CC(=O)O)=C(c1ccccc1)c1ccccc1	> 100 µM (inactive)	> 100 µM (inactive)	> 100 µM (inactive)	–	> 100 µM (inactive)	> 100 µM (inactive)	> 100 µM (inactive)	> 100 µM (inactive)	> 100 µM (inactive)	> 100 µM (inactive)	> 100 µM (inactive)	> 100 µM (inactive)	–	> 100 µM (inactive)	> 100 µM (inactive)	> 100 µM (inactive)	–	> 100 µM (inactive)	–	> 100 µM (inactive)
CC(C)c1cc(C(C)C)c(Cl)c(Cl)c1O.CC(C)c1cc(Cl)c(O)c(C(C)C)c1Cl	20.5 µM (inactive)	20.2 µM (inactive)	76.7 µM (inactive)	18.3 µM (inactive)	32.7 µM (inactive)	24.4 µM (inactive)	32.3 µM (inactive)	20.1 µM (inactive)	–	39.2 µM (inactive)	–	20.4 µM (inactive)	12.5 µM (inactive)	18.7 µM (inactive)	0.063 µM (active)	23 µM (inactive)	–	23.2 µM (inactive)	35 µM (inactive)	23.7 µM (inactive)
CCCCN(CCCC)CC(O)c1cc(-c2ccc(C(F)(F)F)cc2)nc(-c2ccc(C(F)(F)F)cc2)c1 (centres undefined)	> 100 µM (inactive)	79.8 µM (inactive)	61.8 µM (inactive)	32 µM (inactive)	70.8 µM (inactive)	–	35 µM (inactive)	15.7 µM (inactive)	–	> 100 µM (inactive)	> 100 µM (inactive)	39.9 µM (inactive)	–	26.7 µM (inactive)	–	> 100 µM (inactive)	34.4 µM (inactive)	95.7 µM (inactive)	> 100 µM (inactive)	> 10 µM (inactive)
CCOC(=O)c1cc2c(nc1N)-c1ncccc1CC2	> 100 µM (inactive)	31.5 µM (inactive)	44.3 µM (inactive)	28.1 µM (inactive)	83.8 µM (inactive)	49.9 µM (inactive)	65.6 µM (inactive)	–	–	37.2 µM (inactive)	> 100 µM (inactive)	22.6 µM (inactive)	> 100 µM (inactive)	54.5 µM (inactive)	38.9 µM (inactive)	59.7 µM (inactive)	–	88.1 µM (inactive)	–	–
COc1ccc2nc3c(c(N)c2c1)C1CCC3C1(C)C (centres undefined)	39.3 µM (inactive)	17.1 µM (inactive)	32.4 µM (inactive)	18.5 µM (inactive)	16 µM (inactive)	42.9 µM (inactive)	35.9 µM (inactive)	24 µM (inactive)	–	54.8 µM (inactive)	47.6 µM (inactive)	23.5 µM (inactive)	23 µM (inactive)	20.6 µM (inactive)	12.5 µM (inactive)	> 100 µM (inactive)	22.7 µM (inactive)	47.4 µM (inactive)	> 100 µM (inactive)	24 µM (inactive)
C/C(=N\NS(=O)(=O)c1ccc(C)cc1)C(CN(C)C)C(c1ccccc1)c1c(O)c2ccccc2oc1=O (centres undefined)	> 100 µM (inactive)	> 95.3 µM (inactive)	> 100 µM (inactive)	> 100 µM (inactive)	89.9 µM (inactive)	> 100 µM (inactive)	> 100 µM (inactive)	> 100 µM (inactive)	> 100 µM (inactive)	> 100 µM (inactive)	> 100 µM (inactive)	> 95.9 µM (inactive)	55.2 µM (inactive)	> 100 µM (inactive)	> 100 µM (inactive)	> 100 µM (inactive)	–	> 81.7 µM (inactive)	> 100 µM (inactive)	> 100 µM (inactive)
CCOC(=O)CSc1nc(-c2ccc(OC)cc2)c(C#N)c(=O)[nH]1	> 100 µM (inactive)	> 100 µM (inactive)	> 100 µM (inactive)	0.0495 µM (active)	> 100 µM (inactive)	> 100 µM (inactive)	–	> 100 µM (inactive)	–	> 100 µM (inactive)	> 100 µM (inactive)	> 100 µM (inactive)	> 100 µM (inactive)	> 100 µM (inactive)	> 100 µM (inactive)	> 100 µM (inactive)	> 100 µM (inactive)	51.9 µM (inactive)	> 100 µM (inactive)	> 100 µM (inactive)
CC1CCC(=O)NCCCCC(=O)N1 (centres undefined)	> 100 µM (inactive)	> 100 µM (inactive)	> 100 µM (inactive)	> 100 µM (inactive)	> 100 µM (inactive)	> 100 µM (inactive)	> 100 µM (inactive)	–	–	> 100 µM (inactive)	> 100 µM (inactive)	> 100 µM (inactive)	> 100 µM (inactive)	> 100 µM (inactive)	> 100 µM (inactive)	> 100 µM (inactive)	–	> 100 µM (inactive)	–	–
